Results reported in PubChem BioAssay (NCI).
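Protocol summary: plate cells (96-well), add compound at 5 concentrations, incubate 48 h, interpolate endpoints linearly. TGI marks complete inhibition of growth.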

Tests used:
Test in all cases: NCI-60 cell line screen, 48 h
U251 CNS = test system: U251 CNS
M14 melanoma = test system: M14 melanoma
HCT-15 colon = test system: HCT-15 colon
MOLT-4 leukemia = test system: MOLT-4 leukemia
RXF 393 renal = test system: RXF 393 renal
XF 498 CNS = test system: XF 498 CNS
SN12C renal = test system: SN12C renal
M19-MEL melanoma = test system: M19-MEL melanoma
HOP-92 NSCLC = test system: HOP-92 NSCLC
SW-620 colon = test system: SW-620 colon
SR leukemia = test system: SR leukemia
MALME-3M melanoma = test system: MALME-3M melanoma
TK-10 renal = test system: TK-10 renal
T-47D breast = test system: T-47D breast
DLD-1 colon = test system: DLD-1 colon
MDA-MB-435 = test system: MDA-MB-435
HCC-2998 colon = test system: HCC-2998 colon
SK-MEL-28 melanoma = test system: SK-MEL-28 melanoma
SF-268 CNS = test system: SF-268 CNS
COLO 205 colon = test system: COLO 205 colon
HS 578T breast = test system: HS 578T breast
NCI/ADR-RES ovarian = test system: NCI/ADR-RES ovarian
ACHN renal = test system: ACHN renal
HL-60(TB) leukemia = test system: HL-60(TB) leukemia
OVCAR-4 ovarian = test system: OVCAR-4 ovarian
SNB-19 CNS = test system: SNB-19 CNS
MDA-N = test system: MDA-N
DMS 273 small cell lung = test system: DMS 273 small cell lung
MCF7 breast = test system: MCF7 breast
UACC-62 melanoma = test system: UACC-62 melanoma
HT29 colon = test system: HT29 colon
SK-MEL-2 melanoma = test system: SK-MEL-2 melanoma
NCI-H23 lung = test system: NCI-H23 lung
786-0 renal = test system: 786-0 renal
OVCAR-8 ovarian = test system: OVCAR-8 ovarian
UO-31 renal = test system: UO-31 renal
A498 renal = test system: A498 renal
NCI-H460 lung = test system: NCI-H460 lung
OVCAR-3 ovarian = test system: OVCAR-3 ovarian
HOP-18 NSCLC = test system: HOP-18 NSCLC
SNB-75 CNS = test system: SNB-75 CNS
IGROV1 ovarian = test system: IGROV1 ovarian
DMS 114 small cell lung = test system: DMS 114 small cell lung
MDA-MB-231 breast = test system: MDA-MB-231 breast
K-562 leukemia = test system: K-562 leukemia
HCT-116 colon = test system: HCT-116 colon
A549 NSCLC = test system: A549 NSCLC
UACC-257 melanoma = test system: UACC-257 melanoma
BT-549 breast = test system: BT-549 breast
CAKI-1 renal = test system: CAKI-1 renal
SF-295 CNS = test system: SF-295 CNS
CCRF-CEM leukemia = test system: CCRF-CEM leukemia
RPMI-8226 leukemia = test system: RPMI-8226 leukemia
SK-OV-3 ovarian = test system: SK-OV-3 ovarian
LXFL 529 NSCLC = test system: LXFL 529 NSCLC
OVCAR-5 ovarian = test system: OVCAR-5 ovarian
KM20L2 colon = test system: KM20L2 colon
SK-MEL-5 melanoma = test system: SK-MEL-5 melanoma
LOX IMVI melanoma = test system: LOX IMVI melanoma
NCI-H522 lung = test system: NCI-H522 lung
KM12 colon = test system: KM12 colon
NCI-H226 lung = test system: NCI-H226 lung
DU-145 prostate = test system: DU-145 prostate
SF-539 CNS = test system: SF-539 CNS
PC-3 prostate = test system: PC-3 prostate
SNB-78 CNS = test system: SNB-78 CNS
HOP-62 NSCLC = test system: HOP-62 NSCLC
EKVX NSCLC = test system: EKVX NSCLC

## O=c1cc(-c2ccccc2)oc2ccc(Cl)cc12
U251 CNS
  TGI: > 91.7 µM
M14 melanoma
  TGI: > 100 µM
HCT-15 colon
  TGI: > 100 µM
MOLT-4 leukemia
  TGI: 98.7 µM
RXF 393 renal
  TGI: > 91.2 µM
XF 498 CNS
  TGI: > 90.5 µM
SN12C renal
  TGI: > 100 µM
M19-MEL melanoma
  TGI: > 100 µM
HOP-92 NSCLC
  TGI: 73.2 µM
SW-620 colon
  TGI: > 100 µM
SR leukemia
  TGI: > 46.4 µM
MALME-3M melanoma
  TGI: > 82.4 µM
TK-10 renal
  TGI: 92.7 µM
T-47D breast
  TGI: > 100 µM
DLD-1 colon
  TGI: > 100 µM
MDA-MB-435
  TGI: > 60.1 µM
HCC-2998 colon
  TGI: > 100 µM
SK-MEL-28 melanoma
  TGI: > 78.4 µM
SF-268 CNS
  TGI: > 85.3 µM
COLO 205 colon
  TGI: > 85.7 µM
HS 578T breast
  TGI: > 91.8 µM
NCI/ADR-RES ovarian
  TGI: > 100 µM
ACHN renal
  TGI: > 90.6 µM
HL-60(TB) leukemia
  TGI: > 46.4 µM
OVCAR-4 ovarian
  TGI: > 96.3 µM
SNB-19 CNS
  TGI: > 81.7 µM
MDA-N
  TGI: > 61.1 µM
DMS 273 small cell lung
  TGI: > 100 µM
MCF7 breast
  TGI: > 100 µM
UACC-62 melanoma
  TGI: > 79.4 µM
HT29 colon
  TGI: > 100 µM
SK-MEL-2 melanoma
  TGI: > 100 µM
NCI-H23 lung
  TGI: > 100 µM
786-0 renal
  TGI: > 87.8 µM
OVCAR-8 ovarian
  TGI: > 100 µM
UO-31 renal
  TGI: > 88.8 µM
A498 renal
  TGI: 98 µM
NCI-H460 lung
  TGI: > 100 µM
OVCAR-3 ovarian
  TGI: > 100 µM
HOP-18 NSCLC
  TGI: > 100 µM
SNB-75 CNS
  TGI: > 85.7 µM
IGROV1 ovarian
  TGI: > 100 µM
DMS 114 small cell lung
  TGI: > 100 µM
MDA-MB-231 breast
  TGI: > 31.6 µM
K-562 leukemia
  TGI: > 96.2 µM
HCT-116 colon
  TGI: > 100 µM
A549 NSCLC
  TGI: > 100 µM
UACC-257 melanoma
  TGI: > 74.6 µM
BT-549 breast
  TGI: > 100 µM
CAKI-1 renal
  TGI: > 90.4 µM
SF-295 CNS
  TGI: 99.1 µM
CCRF-CEM leukemia
  TGI: > 100 µM
RPMI-8226 leukemia
  TGI: > 100 µM
SK-OV-3 ovarian
  TGI: > 100 µM
LXFL 529 NSCLC
  TGI: > 100 µM
OVCAR-5 ovarian
  TGI: > 100 µM
KM20L2 colon
  TGI: > 100 µM
SK-MEL-5 melanoma
  TGI: > 100 µM
LOX IMVI melanoma
  TGI: > 80.1 µM
NCI-H522 lung
  TGI: > 100 µM
KM12 colon
  TGI: > 80.6 µM
NCI-H226 lung
  TGI: > 100 µM
DU-145 prostate
  TGI: > 100 µM
SF-539 CNS
  TGI: > 97.4 µM
PC-3 prostate
  TGI: > 80.3 µM
SNB-78 CNS
  TGI: > 100 µM
HOP-62 NSCLC
  TGI: > 85.8 µM
EKVX NSCLC
  TGI: > 97 µM
